Laboratory results reported in patent US11679108B2, “Aromatic heterocyclic compound, and pharmaceutical composition and use thereof” (GUANGZHOU HENOVCOM BIOSCIENCE CO., LTD., priority 2018, dated 2023).
pIC50: −log10 of the molar value.

Key:
ATX = ATX (Homo sapiens, UniProt Q13822); experiment: Analysis in vitro: LPC was used as substrate for screening enzyme activity (Amplex Red fluorescence); type: biochemical; conditions: inhibitory activity against ATX, with LPC as substrate
Description: Analysis In Vitro: LPC was Used as Substrate for Screening Enzyme Activity
Principle: Lysophosphatidylcholine (LPC) as substrate is hydrolyzed by using the activity of lysoPLD enzyme, to produce lysophosphatidic acid (LPA) and choline, which is oxidized to produce H2O2 under the action of choline oxidase. In presence of horse radish peroxidase (HPR), Amplex Red reagent is reacted with H2O2 in a quantitative chemistry ratio of 1 to 1, to produce strong fluorescence products, which are detected by a fluorescent quantitative test.
Experimental procedures: the compounds to be tested were dissolved in DMSO, to prepare 10 mM of stock solution, which was diluted in a gradient concentration of 3 times with DMSO from 10 mM, to generate 10 concentration gradients. The reaction buffer solution was used for preparing a mixed solution 1 of 2 ng/μl ATX, 2 U/ml HRP and 0.2 U/ml choline oxidase in a final concentration. 20 μl of the above mixed solution 1 was added to each hole of an experiment board, […]. The compounds diluted with DMSO were transferred into an experiment board with Echo550. The reaction buffer solution was used for preparing a mixed solution 2 of […] LPC and 400 μM Amplex Red in a final concentration. 20 μl of the above mixed solution 2 was added to each hole of the experiment board. After addition, the experiment board was shook for 30 seconds on a shaker, and incubated for 30 minutes. Envision was used to read the fluorescence signals with an exciting light at 530 nm and emitted light at 590 nm. Inhibition ratio of the compounds to enzyme reaction was calculated according to the ratio of fluorescence, and IC50 of the compounds was analyzed and calculated by software, seeing Table 1.

ATX in human plasma = target: T1, ATX in human plasma (Homo sapiens, UniProt Q13822); experiment: Analysis in vitro: detection of LPA in human plasma for screening activity (LPA 18:2 by LC/MS/MS); type: biochemical; conditions: incubated 2 hours at 37° C., LPA 18:2 detected by LC/MS/MS
T1 construct: blank plasma was derived from at least 6 individual people; from tissue; host or cells: human plasma (pooled from at least 6 individuals)
Description: Analysis In Vitro: Detection of LPA in Human Plasma for Screening Activity
Principle: LPC in plasma being used as a substrate, the produced LPA 18:2 (LPA 17:0 as an internal standard) is detected by LC/MS/MS quantitative analysis. At different concentrations of the compounds to be tested, the percentage of residual activity is obtained by the ratio of the production of LPA18:2 to that in the absence of the compounds to be tested, thereby calculating IC50 values.
Experiment procedures: blank plasma was derived from at least 6 individual people. The compounds to be tested were diluted from stock solution in 3-fold dilution gradient, to produce 8 concentrations of working solution (with zero) in series. 10 μL of the melting blank plasma samples were taken and iced methanol solution containing internal standard (LPA 17:0) was added to it, so that the mixture directedly performed protein precipitation, which served as a system control sample. 2 μL of the working solution in different concentration was taken and 198 μL of blank human plasma was added, which was incubated with a concentration of 0 to 10 μM. The samples were placed at an incubater containing 5% CO2 at 37° C., and incubated for 2 hours. When the incubation was completed, 10 μL of plasma sample was taken and appropriate volume of iced methanol solution containing internal standard (LPA 17:0) was added into it, so that the mixture directedly performed protein precipitation. The precipitation was centrifuged to take supernatant. LPA 18:2 was detected by LC/MS/MS and IC50 values were analyzed and calculated by software, seeing Table 2.

Structure (SMILES)	pIC50 (ATX)	pIC50 (ATX in human plasma)
CCc1nc2sc(N3CC[C@H](N(C)CC(=O)N4CC(C(=O)O)C4)C3)nn2c1N(C)c1nc(-c2ccc(F)cc2)c(C#N)s1 [Example 45, (5)-1-{2-[(1-(5-((5-cyano-4-(4-fluorophenyl)thiazol-2-yl)(methyl)amino)-6-ethylimidazo[2,1-b][1,3,4]thiadiazol-2-yl}pyrrolidin-3-yl)(methyl)amino]acetyl}azetidine-3-carboxylic acid]	7.00 to 11.00	6.30 to 7.00
CCc1nc2sc(N3CCC[C@H](N(C)CC(=O)N4CC(O)C4)C3)nn2c1N(C)c1nc(-c2ccc(F)cc2)c(C#N)s1 [Example 24, (S)-2-{[6-ethyl-2-(3-((2-(3-hydroxyazetidin-1-yl)-2-oxoethyl)(methyl)amino)piperidin-1-yl)imidazo[2,1-b][1,3,4]thiadiazol-5-yl](methyl)amino}-4-(4-fluorophenyl)thiazole-5-carbonitrile]	7.00 to 11.00	7.00 to 11.00
CCc1nc2sc(N3CC[C@@H](N(C)C(=O)N4CC(O)C4)C3)nn2c1N(C)c1nc(-c2ccc(F)cc2)c(C#N)s1 [Example 36, (R)—N-{1-[5-((5-cyano-4-(4-fluorophenyl)thiazol-2-yl)(methyl)amino)-6-ethylimidazo[2,1-b][1,3,4]thiadiazol-2-yl]pyrrolidin-3-yl}-3-hydroxy-N-methylazetidine-1-carboxamide]	7.00 to 11.00	6.30 to 7.00
CCc1nc2sc(N3CCC[C@@H](N(C)CC(=O)N4CC(O)C4)C3)nn2c1N(C)c1nc(-c2ccc(F)cc2)c(C#N)s1 [Example 23, (R)-2-{[6-ethyl-2-(3-((2-(3-hydroxyazetidin-1-yl)-2-oxoethyl)(methyl)amino)piperidin-1-yl)imidazo[2,1-b][1,3,4]thiadiazol-5-yl](methyl)amino}-4-(4-fluorophenyl)thiazole-5-carbonitrile]	6.30 to 7.00	6.30 to 7.00
CCc1nc2sc(N3CC[C@H](N(C)CC(=O)N4CC(F)C4)C3)nn2c1N(C)c1nc(-c2ccc(F)cc2)c(C#N)s1 [Example 38, (S)-2-{[6-ethyl-2-(3-((2-(3-fluoroazetidin-1-yl)-2-oxoethyl)(methyl)amino)pyrrolidin-1-yl)imidazo[2,1-b][1,3,4]thiadiazol-5-yl](methyl)amino}-4-(4-fluorophenyl)thiazole-5-carbonitrile]	7.00 to 11.00	6.30 to 7.00
CCc1nc2sc(N3CCCC(N(C)CC(=O)N4CC(O)C4)C3)nn2c1N(C)c1nc(-c2ccc(F)cc2)c(C#N)s1 (stereo not drawn) [Example 14]	7.00 to 11.00	7.00 to 11.00
CCc1nc2sc(N3CC[C@@H](N(C)C(N)=O)C3)nn2c1N(C)c1nc(-c2ccc(F)cc2)c(C#N)s1 [Example 19, (R)-1-{1-[5-((5-cyano-4-(4-fluorophenyl)thiazol-2-yl)(methyl)amino)-6-ethylimidazo[2,1-b][1,3,4]thiadiazol-2-yl]pyrrolidin-3-yl}-1-methylurea]	7.00 to 11.00	6.30 to 7.00
CCc1nc2sc(N3CC[C@H](N(C)CC(=O)N4CC(O)C4)C3)nn2c1N(C)c1nc(-c2ccc(F)cc2)c(C#N)s1 [Example 22, (S)-2-{[6-ethyl-2-(3-((2-(3-hydroxyazetidin-1-yl)-2oxoethyl)(methyl)amino)pyrrolidin-1-yl)imidazo[2,1-b][1,3,4]thiadiazol-5-yl](methyl)amino}-4-(4-fluorophenyl)thiazole-5-carbonitrile]	7.00 to 11.00	7.00 to 11.00
CCc1nc2sc(N3CCC(N(C)S(C)(=O)=O)C3)nn2c1N(C)c1nc(-c2ccc(F)cc2)c(C#N)s1 (stereo not drawn) [Example 10, N-{1-[5-((5-cyano-4-(4-fluorophenyl)thiazol-2-yl)(methyl)amino)-6-ethylimidazo[2,1-b][1,3,4]thiadiazol-2-yl}pyrrolidin-3-yl]-N-methylmethanesulfonamide]	7.00 to 11.00	7.00 to 11.00
CCc1nc2sc(C3CCN(CC(=O)N4CC(O)C4)CC3)nn2c1N(C)c1nc(-c2ccc(F)cc2)c(C#N)s1 [Example 17, 2-{[6-ethyl-2-(1-(2-(3-hydroxyazetidin-1-yl)-2oxoethyl)piperidin-4-yl)imidazo[2,1-b][1,3,4]thiadiazol-5-yl](methyl)amino}-4-(4-fluorophenyl)thiazole-5-carbonitrile]	6.30 to 7.00	7.00 to 11.00
CCc1nc2sc(N3CC[C@H](N(C)C(N)=O)C3)nn2c1N(C)c1nc(-c2ccc(F)cc2)c(C#N)s1 [Example 20, (S)-1-{1-[5-((5-cyano-4-(4-fluorophenyl)thiazol-2-yl)(methyl)amino)-6-ethylimidazo[2,1-b][1,3,4]thiadiazol-2-yl]pyrrolidin-3-yl}-1-methylurea]	7.00 to 11.00	7.00 to 11.00
CCc1nc2sc(N3CCC(N(C)C(N)=O)C3)nn2c1N(C)c1nc(-c2ccc(F)cc2)c(C#N)s1 (stereo not drawn) [Example 12, 1-{1-[5-((5-cyano-4-(4-fluorophenyl)thiazol-2-yl)(methyl)amino)-6-ethylimidazo[2,1-b][1,3,4]thiadiazol-2-yl]pyrrolidin-3-yl}-1-methylurea]	7.00 to 11.00	7.00 to 11.00
CCc1nc2sc(N3CCC4(CC3)CN(CC(=O)N3CC(O)C3)C4)nn2c1N(C)c1nc(-c2ccc(F)cc2)c(C#N)s1 [Example 4]	6.30 to 7.00	7.00 to 11.00
CCc1nc2sc(N3CC[C@H](N(C)C(=O)N4CC(O)C4)C3)nn2c1N(C)c1nc(-c2ccc(F)cc2)c(C#N)s1 [Example 37, (S)—N-{1-[5-((5-cyano-4-(4-fluorophenyl)thiazol-2-yl)(methyl)amino)-6-ethylimidazo[2,1-b][1,3,4]thiadiazol-2-yl]pyrrolidin-3-yl}-3-hydroxy-N-methylazetidine-1-carboxamide]	7.00 to 11.00	6.30 to 7.00
CCc1nc2sc(N3CCC4(CC3)CN(C(N)=O)C4)nn2c1N(C)c1nc(-c2ccc(F)cc2)c(C#N)s1 [Example 8]	6.30 to 7.00	6.30 to 7.00
CCc1nc2sc(N3CC[C@H](N(C)CC(=O)N4CCOCC4)C3)nn2c1N(C)c1nc(-c2ccc(F)cc2)c(C#N)s1 [Example 41, (S)-2-{[6-ethyl-2-(3-(methyl(2-morpholino-2-oxoethyl)amino)pyrrolidin-1-yl)imidazo[2,1-b][1,3,4]thiadiazol-5-yl](methyl)amino}-4-(4-fluorophenyl)thiazole-5-carbonitrile]	7.00 to 11.00	6.30 to 7.00
CCc1nc2sc(N3CCN(CC(=O)N4CC(O)C4)C4(CC4)C3)nn2c1N(C)c1nc(-c2ccc(F)cc2)c(C#N)s1 [Example 71, 2-{[6-ethyl-2-(4-(2-(3-hydroxyazetidin-1-yl)-2-oxoethyl)-4,7-diazaspiro[2.5]octan-7-yl)imidazo[2,1-b][1,3,4]thiadiazol-5-yl](methyl)amino}-4-(4-fluorophenyl)thiazole-5-carbonitrile]		6.30 to 7.00
CCc1nc2sc(N3CCC(N(C)CC(=O)NCC(=O)OC)C3)nn2c1N(C)c1nc(-c2ccc(F)cc2)c(C#N)s1 (stereo not drawn) [Example 50]		6.30 to 7.00
CCc1nc2sc(N3C[C@@H](C)N(CC(=O)N4CC(O)C4)C[C@H]3C)nn2c1N(C)c1nc(-c2ccc(F)cc2)c(C#N)s1 [Example 75, 2-{[6-ethyl-2-((2R,5R)-4-(2-(3-hydroxyazetidin-1-yl)-2-oxoethyl)-2,5-dimethylpiperazin-1-yl)imidazo[2,1-b][1,3,4]thiadiazol-5-yl](methyl)amino}-4-(4-fluorophenyl)thiazole-5-carbonitrile]		6.30 to 7.00
CCc1nc2sc(N3C[C@H](C)N(CC(=O)N4CC(O)C4)[C@@H](C)C3)nn2c1N(C)c1nc(-c2ccc(F)cc2)c(C#N)s1 (relative stereo) [Example 73, trans-2-{[6-ethyl-2-(4-(2-(3-hydroxyazetidin-1-yl)-2-oxoethyl)-3,5-dimethylpiperazin-1-yl)imidazo[2,1-b][1,3,4]thiadiazol-5-yl](methyl)amino}-4-(4-fluorophenyl)thiazole-5-carbonitrile]		6.30 to 7.00
